Laboratory results published in the NIST ThermoML archive (doi:10.1021/je500792x).

Test: xn = mol fraction of the nth substance listed
Conditions: Gas, Buoyancy - hydrostatic balance with magnetic suspension - two sinkers

C [methane] + CCC
Conditions | mass density [kg/m3]
248.15 K, 120.09 kPa, x1 = 0.5069 | 1.7641
248.15 K, 129.19 kPa, x1 = 0.2658 | 2.3527
248.15 K, 129.2 kPa, x1 = 0.2658 | 2.353
248.15 K, 141.7 kPa, x1 = 0.2658 | 2.5862
248.15 K, 159.47 kPa, x1 = 0.2658 | 2.9223
248.15 K, 183.4 kPa, x1 = 0.5069 | 2.7164
248.15 K, 184.56 kPa, x1 = 0.2658 | 3.3988
248.15 K, 188.16 kPa, x1 = 0.2658 | 3.4688
248.15 K, 217.78 kPa, x1 = 0.2658 | 4.0405
248.15 K, 220.8 kPa, x1 = 0.2658 | 4.0982
248.15 K, 244.4 kPa, x1 = 0.5069 | 3.6498
248.15 K, 251.13 kPa, x1 = 0.2658 | 4.6926
248.15 K, 251.49 kPa, x1 = 0.2658 | 4.7012
248.15 K, 271.99 kPa, x1 = 0.2658 | 5.106
248.15 K, 275.99 kPa, x1 = 0.2658 | 5.1859
248.15 K, 303.31 kPa, x1 = 0.5069 | 4.5661
248.15 K, 360.5 kPa, x1 = 0.5069 | 5.4702
248.15 K, 424.87 kPa, x1 = 0.5069 | 6.5055
248.16 K, 96.6 kPa, x1 = 0.2658 | 1.7469
248.16 K, 390.04 kPa, x1 = 0.7498 | 4.4826
248.16 K, 500.33 kPa, x1 = 0.7498 | 5.7986
248.16 K, 580.7 kPa, x1 = 0.7498 | 6.7717
248.16 K, 685.07 kPa, x1 = 0.7498 | 8.0551
248.16 K, 786.24 kPa, x1 = 0.7498 | 9.3205
248.16 K, 835.6 kPa, x1 = 0.7498 | 9.9461
248.17 K, 276.07 kPa, x1 = 0.7498 | 3.1456
273.15 K, 123.94 kPa, x1 = 0.2658 | 2.0343
273.15 K, 149.35 kPa, x1 = 0.2658 | 2.4607
273.15 K, 167.49 kPa, x1 = 0.2658 | 2.7678
273.15 K, 198.96 kPa, x1 = 0.2658 | 3.3031
273.15 K, 218.04 kPa, x1 = 0.5069 | 2.9261
273.15 K, 242.18 kPa, x1 = 0.2658 | 4.0482
273.15 K, 247.99 kPa, x1 = 0.2658 | 4.1483
273.15 K, 258.4 kPa, x1 = 0.5069 | 3.4829
273.15 K, 262.29 kPa, x1 = 0.5069 | 3.5352
273.15 K, 269.26 kPa, x1 = 0.5069 | 3.6315
273.15 K, 277.28 kPa, x1 = 0.5069 | 3.7427
273.15 K, 300.07 kPa, x1 = 0.2658 | 5.0612
273.15 K, 309 kPa, x1 = 0.5069 | 4.1836
273.15 K, 321.34 kPa, x1 = 0.5069 | 4.3576
273.15 K, 323.08 kPa, x1 = 0.5069 | 4.3804
273.15 K, 340.35 kPa, x1 = 0.5069 | 4.6226
273.15 K, 344.34 kPa, x1 = 0.2658 | 5.85
273.15 K, 347.43 kPa, x1 = 0.2658 | 5.905
273.15 K, 396.65 kPa, x1 = 0.2658 | 6.7965
273.15 K, 401.7 kPa, x1 = 0.2658 | 6.8905
273.15 K, 402.73 kPa, x1 = 0.5069 | 5.504
273.15 K, 406.45 kPa, x1 = 0.2658 | 6.9764
273.15 K, 409.05 kPa, x1 = 0.5069 | 5.5939
273.15 K, 415.33 kPa, x1 = 0.5069 | 5.6832
273.15 K, 430.8 kPa, x1 = 0.2658 | 7.425
273.15 K, 441.3 kPa, x1 = 0.5069 | 6.0553
273.15 K, 445.43 kPa, x1 = 0.2658 | 7.6956
273.15 K, 453.52 kPa, x1 = 0.5069 | 6.2301
273.15 K, 486.1 kPa, x1 = 0.2658 | 8.4581
273.15 K, 491.06 kPa, x1 = 0.5069 | 6.7718
273.15 K, 491.24 kPa, x1 = 0.2658 | 8.5547
273.15 K, 491.73 kPa, x1 = 0.2658 | 8.5641
273.15 K, 492.46 kPa, x1 = 0.7498 | 5.1329
273.15 K, 497.16 kPa, x1 = 0.5069 | 6.8601
273.15 K, 500.89 kPa, x1 = 0.7498 | 5.2229
273.15 K, 503.23 kPa, x1 = 0.5069 | 6.9481
273.15 K, 506.93 kPa, x1 = 0.5069 | 7.0019
273.15 K, 537.7 kPa, x1 = 0.2658 | 9.4417
273.15 K, 542.15 kPa, x1 = 0.2658 | 9.5274
273.15 K, 556.33 kPa, x1 = 0.5069 | 7.7247
273.15 K, 562.21 kPa, x1 = 0.2658 | 9.9157
273.15 K, 568.57 kPa, x1 = 0.2658 | 10.0392
273.15 K, 598.52 kPa, x1 = 0.2658 | 10.627
273.15 K, 607.75 kPa, x1 = 0.5069 | 8.4837
273.15 K, 608.84 kPa, x1 = 0.2658 | 10.8307
273.15 K, 612.13 kPa, x1 = 0.5069 | 8.5493
273.15 K, 615.59 kPa, x1 = 0.2658 | 10.9644
273.15 K, 619.26 kPa, x1 = 0.5069 | 8.6551
273.15 K, 625.49 kPa, x1 = 0.5069 | 8.7476
273.15 K, 631.66 kPa, x1 = 0.5069 | 8.8402
273.15 K, 635.08 kPa, x1 = 0.2658 | 11.3537
273.15 K, 652.39 kPa, x1 = 0.2658 | 11.7011
273.15 K, 659.32 kPa, x1 = 0.2658 | 11.8408
273.15 K, 701.31 kPa, x1 = 0.5069 | 9.8889
273.15 K, 705.87 kPa, x1 = 0.5069 | 9.9584
273.15 K, 711.71 kPa, x1 = 0.5069 | 10.0475
273.15 K, 781.92 kPa, x1 = 0.5069 | 11.1241
273.15 K, 803.19 kPa, x1 = 0.5069 | 11.4547
273.15 K, 829.52 kPa, x1 = 0.5069 | 11.8643
273.15 K, 888.98 kPa, x1 = 0.5069 | 12.8024
273.15 K, 899.81 kPa, x1 = 0.7498 | 9.5966
273.15 K, 907.76 kPa, x1 = 0.5069 | 13.1006
273.15 K, 930.25 kPa, x1 = 0.5069 | 13.4618
273.15 K, 971.91 kPa, x1 = 0.5069 | 14.1337
273.15 K, 986.2 kPa, x1 = 0.5069 | 14.3651
273.15 K, 1000.4 kPa, x1 = 0.7498 | 10.7338
273.15 K, 1009.5 kPa, x1 = 0.5069 | 14.7469
273.15 K, 1015 kPa, x1 = 0.7498 | 10.9019
273.15 K, 1015.5 kPa, x1 = 0.5069 | 14.8424
273.15 K, 1041.7 kPa, x1 = 0.5069 | 15.2749
273.15 K, 1299.2 kPa, x1 = 0.7498 | 14.1894
273.15 K, 1500.9 kPa, x1 = 0.7498 | 16.5996
273.15 K, 1510.9 kPa, x1 = 0.7498 | 16.7231
273.15 K, 1700.4 kPa, x1 = 0.7498 | 19.0432
273.15 K, 1998.9 kPa, x1 = 0.7498 | 22.8321
273.15 K, 1999.7 kPa, x1 = 0.7498 | 22.8429
273.15 K, 2002 kPa, x1 = 0.7498 | 22.875
273.15 K, 2303.6 kPa, x1 = 0.7498 | 26.8673
293.14 K, 149.9 kPa, x1 = 0.2658 | 2.2913
293.14 K, 469.3 kPa, x1 = 0.2658 | 7.4652
293.14 K, 568.75 kPa, x1 = 0.2658 | 9.168
293.14 K, 1056.3 kPa, x1 = 0.2658 | 18.3225
293.14 K, 1105.7 kPa, x1 = 0.2658 | 19.3404
293.14 K, 1807.2 kPa, x1 = 0.5069 | 25.9503
293.15 K, 258.04 kPa, x1 = 0.2658 | 3.9961
293.15 K, 355.08 kPa, x1 = 0.2658 | 5.5657
293.15 K, 393.88 kPa, x1 = 0.5069 | 4.9714
293.15 K, 613.82 kPa, x1 = 0.5069 | 7.8849
293.15 K, 655.65 kPa, x1 = 0.2658 | 10.6963
293.15 K, 803.74 kPa, x1 = 0.5069 | 10.489
293.15 K, 857.4 kPa, x1 = 0.2658 | 14.4071
293.15 K, 955.25 kPa, x1 = 0.2658 | 16.2977
293.15 K, 1006.2 kPa, x1 = 0.5069 | 13.3634
